Measured values from patent US20030226169A1, “DNA sequences encoding antifungal proteins” (priority 1995, published 2003).
Positions of bridges follow the written chain, without caps; N, C: chain ends. Residues, ends and D or L forms follow the SMILES beside them.

How the values were obtained:
[1] = Solubility of peptide in water; format: physicochemical; details: dissolved at 2 mg/ml
Description: Peptides insoluble in water were dissolved in 50% acetonitrile: 50% acetonitrile was added to the peptide to give a stock solution which could be further diluted with water for fungal growth assays. Fungal growth was not affected by the presence of acetonitrile at the maximum concentration tested ([…] in the test well).
Split 15-mer peptides were dissolved in sterile milli-Q water to a final concentration of 5 mg/ml. MPS 15-mer peptides were dissolved to a final concentration between 4 and 10 mg/ml using acetonitrile as solvent for those peptides insoluble in water. Split 6-, 9- and 12-mer Rs-AFP 1 peptides were dissolved to a final concentration of 2 mg/ml in 20% acetonitrile. Split 6-, 9- and 12-mer Rs-AFP2 peptides were dissolved to a final concentration of 2 mg/ml in sterile water except for peptides numbers 1 (SEQ ID NO: 133) and 83 (SEQ ID NO: 35, amino acids 37-45) which were dissolved in 50% acetonitrile and numbers 3, 4, 5, 25, 47, 52, 64, 69, 70, 73, 74, 77, 85 and 93 which were dissolved in 20% acetonitrile. Both Rs-AFP1 and Rs-AFP2 peptides were freeze-dried just before weighing. […] The foregoing peptides have the following sequence identifications: […]

[2] = test system: Fusarium culmorum (IMI 180420); assay: Antifungal growth inhibition microplate assay (photospectrometry); format: cell-based; details: for increase of MIC value: 15-mer peptides, 50 mM KCl versus ½ PDB alone
Outline: (§1)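 Spores (2×10^4/ml) in half-strength potato dextrose broth exposed to test solution, incubated in the dark at room temperature for about 72 h (96 h for V. dahliae). Growth by OD595 minus 30-min reading; IC50 is 50% and MIC 100% growth inhibition.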

F culmorum = assay: Antifungal activity of combinations of Rs-AFP and 15-mer peptides; format: cell-based, Fusarium culmorum; details: 100 x MIC of Rs-AFP2 / MIC of Rs-AFP2/peptide combination; 15-mer peptide added at 20 μg/ml; SMF medium; BSA-coated plates; Rs-AFP2 alone = 100
Description: The 15-mer peptides were tested for their ability to affect the antifungal activity of the Rs-AFP2 protein (SEQ ID NO: 35). Each peptide was added at a subinhibitory concentration (20 μg/ml ) to a twofold dilution series of Rs-AFP2 (SEQ ID NO: 35) ranging from 20 μg/ml down to 0.15 μg/ml. In the control series only water was added.
The target fungus was F culmorum and the growth medium was SMF. In order to exclude the effect of differential binding of the peptides to the microplate wells, the plates were coated with bovine serum albumin. […] The relative specific activity is defined as one hundred times the MIC of Rs-AFP2 divided by the MIC of the Rs-AFP2/peptide combination. Data are based on duplicate tests.

yeast = details: at concentrations as high as 500 μg/ml; cited from earlier work
various fungi = details: on various fungi; cited from earlier work
[3] = test system: Ascophyta pisi (MUCL 30164); format: cell-based; details: Rs-AFP2 15-mer MPS peptides; one test
Outline: as §1

[4] = test system: Botrytis cinerea (MUCL 30158); assay: Antifungal growth inhibition microplate assay (photospectrometry); format: cell-based; details: Rs-AFP2 15-mer MPS peptides; one test
Outline: as §1

[5] = test system: Alternaria brassicicola (MUCL 20297); assay: as above; format: cell-based; details: Rs-AFP2 15-mer MPS peptides; one test
Outline: as §1

[6] = test system: Verticillium dahliae (MUCL 19210); assay: as above; format: cell-based; details: Rs-AFP2 15-mer MPS peptides; one test; 96 hours
Outline: as §1

[7] = Table 14: 18-, 19-, 20-mer peptides with C-terminal Phe49, duplo

Molecule: CC(=O)N[C@H]1CSSC[C@@H](C(N)=O)NC(=O)[C@H](CCCCN)NC(=O)[C@H](Cc2c[nH]cn2)NC(=O)[C@H](C)NC(=O)[C@@H]2CCCN2C(=O)[C@H](Cc2ccccc2)NC(=O)[C@H](C(C)C)NC(=O)[C@H](Cc2ccc(O)cc2)NC(=O)[C@H](CC(N)=O)NC1=O [Loop 1, CNYVFPAHKC] (Ac-CNYVFPAHKC-NH2; disulfide 1-10)
- solubility in water [1]: completely soluble in water
- ANTIFUNGAL ACTIVITY, MIC ([2]; Table 8: Loop 1 and Rs-AFP2 15-mer peptides, 1/16 PDB): 2.5 µg/mL
- ANTIFUNGAL ACTIVITY, IC50 ([2]; Table 9: Loop 1 and Rs-AFP2 15-mer peptides, 1/16 PDB): 4 µg/mL

Molecule: CC[C@H](C)[C@H](NC(=O)[C@H](CS)NC(=O)[C@H](CCC(N)=O)NC(=O)[C@H](CC(N)=O)NC(=O)[C@H](CCCCN)NC(=O)[C@H](CS)NC(C)=O)C(=O)N[C@@H](CCCNC(=N)N)C(=O)N[C@@H](CC(C)C)C(=O)N[C@@H](CCC(=O)O)C(=O)N[C@@H](CCCCN)C(=O)N[C@@H](C)C(=O)N[C@@H](CCCNC(=N)N)C(=O)N[C@@H](Cc1c[nH]cn1)C(=O)NCC(=O)N[C@@H](CO)C(N)=O [Peptide 6 (Rs-AFP2 15-mer), CKNQCIRLEKARHGS] (Ac-CKNQCIRLEKARHGS-NH2; N-terminus and C-terminus assumed)
- Relative Specific Antifungal Activity (F culmorum): 300
- increase of MIC value [2]: twofold

Molecule: CC[C@H](C)[C@H](NC(=O)[C@H](CS)NC(C)=O)C(=O)N[C@@H](CCCNC(=N)N)C(=O)N[C@@H](CC(C)C)C(=O)N[C@@H](CCC(=O)O)C(=O)N[C@@H](CCCCN)C(=O)N[C@@H](C)C(=O)N[C@@H](CCCNC(=N)N)C(=O)N[C@@H](Cc1c[nH]cn1)C(=O)NCC(=O)N[C@@H](CO)C(=O)N[C@@H](CS)C(=O)N[C@@H](CC(N)=O)C(=O)N[C@@H](Cc1ccc(O)cc1)C(=O)N[C@H](C(N)=O)C(C)C [Peptide 7 (Rs-AFP2 15-mer), CIRLEKARHGSCNYV] (Ac-CIRLEKARHGSCNYV-NH2; N-terminus and C-terminus assumed)
- Relative Specific Antifungal Activity (F culmorum): 350
- increase of MIC value [2]: twofold

Molecule: CC(=O)N[C@@H](CCC(=O)O)C(=O)N[C@@H](CCCCN)C(=O)N[C@@H](C)C(=O)N[C@@H](CCCNC(=N)N)C(=O)N[C@@H](Cc1c[nH]cn1)C(=O)NCC(=O)N[C@@H](CO)C(=O)N[C@@H](CS)C(=O)N[C@@H](CC(N)=O)C(=O)N[C@@H](Cc1ccc(O)cc1)C(=O)N[C@H](C(=O)N[C@@H](Cc1ccccc1)C(=O)N1CCC[C@H]1C(=O)N[C@@H](C)C(=O)N[C@@H](Cc1c[nH]cn1)C(N)=O)C(C)C [Peptide 8 (Rs-AFP2 15-mer)]
- Relative Specific Antifungal Activity (F culmorum): 470
- increase of MIC value [2]: about 16 fold

Molecule: CC[C@H](C)[C@H](NC(=O)[C@H](CS)NC(=O)[C@H](CCCCN)NC(=O)[C@H](Cc1c[nH]cn1)NC(=O)[C@H](C)NC(=O)[C@@H]1CCCN1C(=O)[C@H](Cc1ccccc1)NC(=O)[C@@H](NC(=O)[C@H](Cc1ccc(O)cc1)NC(=O)[C@H](CC(N)=O)NC(=O)[C@H](CS)NC(=O)[C@H](CO)NC(=O)CNC(=O)[C@H](Cc1c[nH]cn1)NC(C)=O)C(C)C)C(=O)N[C@@H](CS)C(N)=O [Peptide 9 (Rs-AFP2 15-mer), HGSCNYVFPAHKCIC] (Ac-HGSCNYVFPAHKCIC-NH2; N-terminus and C-terminus assumed)
- Relative Specific Antifungal Activity (F culmorum): 450
- increase of MIC value [2]: ~8 fold

Molecule: Rs-AFP2: antifungal protein 2 (plant defensin) from radish (Raphanus sativus) seeds; positive control (QKLCQRPSGTWSGVCGNNNACKNQCIRLEKARHGSCNYVFPAHKCICYFPC; listed as Raphanus sativus)
- adverse effects on yeast (yeast): does not have adverse effects
- activity relative to Rs-AFP1 (various fungi): two- to thirty-fold more active
- MIC VALUES A PISI [3]: 20 to 40 µg/mL
- MIC VALUES B CINEREA [4]: >40 µg/mL
- MIC VALUES A BRASSICICOLA [5]: 10 µg/mL
- MIC VALUES F CULMORUM MPS ([2]; Rs-AFP2 15-mer MPS peptides, medium value of five tests): 5 to 10 µg/mL
- MIC VALUES F CULMORUM Split ([2]; Rs-AFP2 15-mer split peptides (extra C-terminal beta-alanine), dilution 500-3.9 μg/ml, duplicate, MIC approximations): 10 µg/mL
- MIC ([2]; Table 12: Rs-AFP2 15-mer peptides, ½ PDB): 3 µg/mL
- MIC ([2]; Table 12: ½ PDB supplemented with 1 mM CaCl2): 6 µg/mL
- MIC ([2]; Table 12: ½ PDB supplemented with 5 mM CaCl2): 6 µg/mL
- MIC ([2]; Table 12: ½ PDB supplemented with 10 mM KCl): 3 µg/mL
- MIC ([2]; Table 12: ½ PDB supplemented with 50 mM KCl): 3 µg/mL
- MIC ([2]; Table 12: ½ PDB supplemented with 50 mM KCl, 1 mM CaCl2): 6 µg/mL
- IC50 1/2 PDB ([2]; Table 13: linear β2-β3 loop MPS peptides, 2 × 10^4 spores/ml, duplo): 3.3 ± 0.0 µg/mL
- IC50 SMF + pH5 ([2]; Table 13: linear β2-β3 loop MPS peptides, SMF+ (1 mM Ca2+, 50 mM K+) pH5, duplo): 5.2 ± 1.2 μg/ml
- IC50 SMF + pH7 ([2]; Table 13: linear β2-β3 loop MPS peptides, SMF+ (1 mM Ca2+, 50 mM K+) pH7, duplo): 6.1 ± 1.3 μg/ml
- IC50 SMF + pH5 [2, 7]: 7.2 ± 0.6 μg/ml
- IC50 SMF + pH7 [2, 7]: 3.7 ± 0.6 μg/ml
- IC50 ½ PDB ([2]; Table 14: 18-, 19-, 20-mer peptides with C-terminal Phe49, peptides single experiment): 2.5 ± 0.8 µg/mL
- MIC VALUES V DAHLIAE [6]: 10 µg/mL
